Data as given in PubChem BioAssay (NCI).
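Following 48 hours of exposure in 96-well plates, responses at five concentrations were used to interpolate endpoints linearly. The concentration for full growth arrest is given as TGI.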

How the values were obtained:
Experiment in all cases: growth of human tumour cells (NCI), 48 h
786-0 renal = system: 786-0 renal
A498 renal = system: A498 renal
A549 NSCLC = system: A549 NSCLC
ACHN renal = system: ACHN renal
CAKI-1 renal = system: CAKI-1 renal
CCRF-CEM leukemia = system: CCRF-CEM leukemia
COLO 205 colon = system: COLO 205 colon
DLD-1 colon = system: DLD-1 colon
DMS 114 small cell lung = system: DMS 114 small cell lung
DMS 273 small cell lung = system: DMS 273 small cell lung
EKVX NSCLC = system: EKVX NSCLC
HCT-116 colon = system: HCT-116 colon
HCT-15 colon = system: HCT-15 colon
HL-60(TB) leukemia = system: HL-60(TB) leukemia
HOP-18 NSCLC = system: HOP-18 NSCLC
HOP-62 NSCLC = system: HOP-62 NSCLC
HOP-92 NSCLC = system: HOP-92 NSCLC
HT29 colon = system: HT29 colon
IGROV1 ovarian = system: IGROV1 ovarian
K-562 leukemia = system: K-562 leukemia
KM12 colon = system: KM12 colon
KM20L2 colon = system: KM20L2 colon
LXFL 529 NSCLC = system: LXFL 529 NSCLC
M14 melanoma = system: M14 melanoma
M19-MEL melanoma = system: M19-MEL melanoma
MALME-3M melanoma = system: MALME-3M melanoma
MOLT-4 leukemia = system: MOLT-4 leukemia
NCI-H226 lung = system: NCI-H226 lung
NCI-H23 lung = system: NCI-H23 lung
NCI-H460 lung = system: NCI-H460 lung
NCI-H522 lung = system: NCI-H522 lung
OVCAR-3 ovarian = system: OVCAR-3 ovarian
OVCAR-4 ovarian = system: OVCAR-4 ovarian
OVCAR-5 ovarian = system: OVCAR-5 ovarian
OVCAR-8 ovarian = system: OVCAR-8 ovarian
RPMI-8226 leukemia = system: RPMI-8226 leukemia
SF-268 CNS = system: SF-268 CNS
SF-295 CNS = system: SF-295 CNS
SF-539 CNS = system: SF-539 CNS
SK-MEL-2 melanoma = system: SK-MEL-2 melanoma
SK-MEL-28 melanoma = system: SK-MEL-28 melanoma
SK-MEL-5 melanoma = system: SK-MEL-5 melanoma
SK-OV-3 ovarian = system: SK-OV-3 ovarian
SN12C renal = system: SN12C renal
SNB-19 CNS = system: SNB-19 CNS
SNB-75 CNS = system: SNB-75 CNS
SNB-78 CNS = system: SNB-78 CNS
SR leukemia = system: SR leukemia
SW-620 colon = system: SW-620 colon
TK-10 renal = system: TK-10 renal
U251 CNS = system: U251 CNS
UACC-257 melanoma = system: UACC-257 melanoma
UACC-62 melanoma = system: UACC-62 melanoma
UO-31 renal = system: UO-31 renal
XF 498 CNS = system: XF 498 CNS
HCC-2998 colon = system: HCC-2998 colon
LOX IMVI melanoma = system: LOX IMVI melanoma
RXF 393 renal = system: RXF 393 renal

## Oc1ccc(-c2nc(=S)[nH][nH]2)cc1
786-0 renal
  TGI: > 100 µM
A498 renal
  TGI: > 100 µM
A549 NSCLC
  TGI: > 100 µM
ACHN renal
  TGI: > 100 µM
CAKI-1 renal
  TGI: > 100 µM
CCRF-CEM leukemia
  TGI: > 100 µM
COLO 205 colon
  TGI: > 100 µM
DLD-1 colon
  TGI: > 100 µM
DMS 114 small cell lung
  TGI: > 100 µM
DMS 273 small cell lung
  TGI: > 100 µM
EKVX NSCLC
  TGI: > 100 µM
HCT-116 colon
  TGI: > 100 µM
HCT-15 colon
  TGI: > 100 µM
HL-60(TB) leukemia
  TGI: > 100 µM
HOP-18 NSCLC
  TGI: > 100 µM
HOP-62 NSCLC
  TGI: > 100 µM
HOP-92 NSCLC
  TGI: > 100 µM
HT29 colon
  TGI: > 100 µM
IGROV1 ovarian
  TGI: > 100 µM
K-562 leukemia
  TGI: > 100 µM
KM12 colon
  TGI: > 100 µM
KM20L2 colon
  TGI: > 100 µM
LXFL 529 NSCLC
  TGI: > 100 µM
M14 melanoma
  TGI: > 100 µM
M19-MEL melanoma
  TGI: > 100 µM
MALME-3M melanoma
  TGI: > 100 µM
MOLT-4 leukemia
  TGI: > 100 µM
NCI-H226 lung
  TGI: > 100 µM
NCI-H23 lung
  TGI: > 100 µM
NCI-H460 lung
  TGI: > 100 µM
NCI-H522 lung
  TGI: > 100 µM
OVCAR-3 ovarian
  TGI: > 100 µM
OVCAR-4 ovarian
  TGI: > 100 µM
OVCAR-5 ovarian
  TGI: > 100 µM
OVCAR-8 ovarian
  TGI: > 100 µM
RPMI-8226 leukemia
  TGI: > 100 µM
SF-268 CNS
  TGI: > 100 µM
SF-295 CNS
  TGI: > 100 µM
SF-539 CNS
  TGI: > 100 µM
SK-MEL-2 melanoma
  TGI: > 100 µM
SK-MEL-28 melanoma
  TGI: > 100 µM
SK-MEL-5 melanoma
  TGI: > 100 µM
SK-OV-3 ovarian
  TGI: > 100 µM
SN12C renal
  TGI: > 100 µM
SNB-19 CNS
  TGI: > 100 µM
SNB-75 CNS
  TGI: > 100 µM
SNB-78 CNS
  TGI: > 100 µM
SR leukemia
  TGI: > 100 µM
SW-620 colon
  TGI: > 100 µM
TK-10 renal
  TGI: > 100 µM
U251 CNS
  TGI: > 100 µM
UACC-257 melanoma
  TGI: > 100 µM
UACC-62 melanoma
  TGI: > 100 µM
UO-31 renal
  TGI: > 100 µM
XF 498 CNS
  TGI: > 100 µM

## CCOC(=O)C1=C(OC(OCC)C(C)[Se]c2ccccc2)CCC1 (stereo unspecified)
786-0 renal
  TGI: 25.1 µM
A498 renal
  TGI: > 100 µM
A549 NSCLC
  TGI: > 100 µM
ACHN renal
  TGI: 68.4 µM
CAKI-1 renal
  TGI: > 100 µM
CCRF-CEM leukemia
  TGI: 49.7 µM
COLO 205 colon
  TGI: 82.2 µM
DLD-1 colon
  TGI: 40.5 µM
DMS 273 small cell lung
  TGI: 22.4 µM
EKVX NSCLC
  TGI: 59.1 µM
HCC-2998 colon
  TGI: > 100 µM
HCT-116 colon
  TGI: 38.8 µM
HCT-15 colon
  TGI: 33.6 µM
HL-60(TB) leukemia
  TGI: 21.2 µM
HOP-18 NSCLC
  TGI: 51.7 µM
HOP-62 NSCLC
  TGI: > 100 µM
HOP-92 NSCLC
  TGI: 48.3 µM
HT29 colon
  TGI: 77.6 µM
IGROV1 ovarian
  TGI: 81 µM
K-562 leukemia
  TGI: > 100 µM
KM12 colon
  TGI: > 100 µM
KM20L2 colon
  TGI: 74.2 µM
LOX IMVI melanoma
  TGI: 20.4 µM
LXFL 529 NSCLC
  TGI: 37.4 µM
M14 melanoma
  TGI: 63.2 µM
M19-MEL melanoma
  TGI: 38.9 µM
MALME-3M melanoma
  TGI: 89.5 µM
MOLT-4 leukemia
  TGI: 58.5 µM
NCI-H226 lung
  TGI: 50.4 µM
NCI-H23 lung
  TGI: 27.9 µM
NCI-H460 lung
  TGI: 60 µM
NCI-H522 lung
  TGI: 26.9 µM
OVCAR-3 ovarian
  TGI: 32 µM
OVCAR-4 ovarian
  TGI: 37.5 µM
OVCAR-5 ovarian
  TGI: > 100 µM
OVCAR-8 ovarian
  TGI: 30.1 µM
RPMI-8226 leukemia
  TGI: 36.5 µM
RXF 393 renal
  TGI: 30.2 µM
SF-268 CNS
  TGI: 32.3 µM
SF-295 CNS
  TGI: 79.3 µM
SF-539 CNS
  TGI: 39.9 µM
SK-MEL-2 melanoma
  TGI: > 100 µM
SK-MEL-28 melanoma
  TGI: 62.7 µM
SK-MEL-5 melanoma
  TGI: 39.9 µM
SK-OV-3 ovarian
  TGI: > 100 µM
SN12C renal
  TGI: 36.5 µM
SNB-19 CNS
  TGI: > 100 µM
SNB-75 CNS
  TGI: 73.6 µM
SNB-78 CNS
  TGI: > 100 µM
SR leukemia
  TGI: 28 µM
TK-10 renal
  TGI: > 100 µM
U251 CNS
  TGI: 20.1 µM
UACC-257 melanoma
  TGI: > 100 µM
UACC-62 melanoma
  TGI: 43.6 µM
UO-31 renal
  TGI: 47.1 µM
XF 498 CNS
  TGI: 34.4 µM
